Numbering of substitutions follows the chain as printed.
Legend:
Format in all cases: binding
YkoE [1] = biological target: T1, YkoE (Bacillus subtilis, UniProt O34738); test: intrinsic Trp fluorescence quenching titration
T1 construct: isolated S component without YkoC/YkoD; N-terminal His6 tag cut by TEV; E. coli Lemo21; n-decyl-beta-D-maltopyranoside; four N-terminal residues not seen in crystal
T1 sequence (O34738 1-199 limits assumed): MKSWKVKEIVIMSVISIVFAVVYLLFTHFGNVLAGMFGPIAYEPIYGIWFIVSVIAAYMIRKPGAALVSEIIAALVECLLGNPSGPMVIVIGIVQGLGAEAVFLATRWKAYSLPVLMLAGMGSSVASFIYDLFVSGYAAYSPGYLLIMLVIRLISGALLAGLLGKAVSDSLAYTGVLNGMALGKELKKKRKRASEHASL

YkoE [2] = biological target: T2, YkoE (Bacillus subtilis, UniProt O34738, Y46A); test: intrinsic Trp fluorescence quenching titration
T2 construct: isolated S component without YkoC/YkoD; N-terminal His6 tag cut by TEV; E. coli Lemo21; n-decyl-beta-D-maltopyranoside; four N-terminal residues not seen in crystal
T2 sequence (O34738 1-199 Y46A limits assumed): T1 sequence (O34738 1-199 limits assumed) with Y46A

YkoE [3] = biological target: T1, YkoE; test: CD thermal melting at […] nm; conditions: YkoE from M9 medium plus excess thiamine; reference without added thiamine 68 °C; pH 7.1, 200 mM NaCl; 1 °C/min
YkoE [4] = biological target: T3, YkoE (Bacillus subtilis, UniProt O34738, E77A); test: intrinsic Trp fluorescence quenching titration
T3 construct: isolated S component without YkoC/YkoD; N-terminal His6 tag cut by TEV; E. coli Lemo21; n-decyl-beta-D-maltopyranoside; four N-terminal residues not seen in crystal
T3 sequence (O34738 1-199 E77A limits assumed): T1 sequence (O34738 1-199 limits assumed) with E77A

YkoE [5] = biological target: T4, YkoE (Bacillus subtilis, UniProt O34738, D131A); test: intrinsic Trp fluorescence quenching titration
T4 construct: isolated S component without YkoC/YkoD; N-terminal His6 tag cut by TEV; E. coli Lemo21; n-decyl-beta-D-maltopyranoside; four N-terminal residues not seen in crystal
T4 sequence (O34738 1-199 D131A limits assumed): T1 sequence (O34738 1-199 limits assumed) with D131A

YkoE [6] = biological target: T5, YkoE (Bacillus subtilis, UniProt O34738, Q95A); test: intrinsic Trp fluorescence quenching titration
T5 construct: isolated S component without YkoC/YkoD; N-terminal His6 tag cut by TEV; E. coli Lemo21; n-decyl-beta-D-maltopyranoside; four N-terminal residues not seen in crystal
T5 sequence (O34738 1-199 Q95A limits assumed): T1 sequence (O34738 1-199 limits assumed) with Q95A
Text: intrinsic Trp fluorescence quenching titration on YkoE | with the Q95A mutation showing the largest effect on affinity

Compound: Cc1ncc(C[n+]2csc(CCO)c2C)c(N)n1 [thiamine]
- Kd (YkoE [1]): ~4.5 nM
- Kd (YkoE [2]): 10.3 ± 0.8 nM
- Tm (YkoE [3]): 75 °C
- Kd (YkoE [4]): 9.3 ± 0.6 nM
- Kd (YkoE [5]): 9.4 ± 0.9 nM
- Kd (YkoE [6]): 26.9 ± 1.6 nM
